Assay results taken from PMC12756401, “Effect of itraconazole on pharmacokinetics of ZX-7101A tablets in healthy Chinese subjects” (Frontiers in Pharmacology, 2025).

Conditions: in vivo
Protocol: This single center, open label, fixed sequence trial consisted of two stages. Stage 1 was single oral administration of ZX-7101A tablets to the subjects under fasting condition, while Stage 2 included coadministration of ZX-7101A tablets and itraconazole capsules. Participants took ZX-7101A tablets 40 mg orally under fasting condition in the morning on D1 of Stage 1 and D31 of Stage 2. In drug-drug interaction clinical trials, the selected dose of the precipitant drug should maximize the potential to identify drug-drug interaction in the context of safety (i.e., achieving an exposure level close to the highest clinically recommended dose). […] The PK of itraconazole is influenced by its formulation, food intake, and gastrointestinal pH ([Liu et al., 2016]; [Allen et al., 2015]). […] Therefore, in this study, itraconazole was administered orally after meals to achieve maximum clinical exposure. Therefore, from D26 to D50 of Stage 2, the participants took 200 mg itraconazole capsules once daily for 25 consecutive days within 30 min after eating a standard breakfast (coadministration with ZX-7101A at the same time in the morning of D31 under fasting condition). […]
The safety of subjects was assessed in terms of adverse events (AEs) and serious adverse events (SAEs) after administration based on the findings of physical examination, vital signs, ECG, and laboratory tests.

CCC(C)n1ncn(-c2ccc(N3CCN(c4ccc(OCC5COC(Cn6cncn6)(c6ccc(Cl)cc6Cl)O5)cc4)CC3)cc2)c1=O (centres unmarked) [Itraconazole, itraconazole]
TEAE: COVID-19 (human): 0 n (%) | drug-related TEAE: None of the subjects developed any drug-related TEAE
